Results from paper PMC12065899 (Communications Biology, 2025).
Substitutions are numbered along the chain they refer to. pKi: −log10 of the molar value.

Columns and labels:
Format in all cases: biochemical
[1] = biological target: T1, HvExoI (β-D-glucan glucohydrolase) (Hordeum vulgare, UniProt Q9XEI3); test: competitive inhibition kinetics with 4NP-Glc
T1 sequence (Q9XEI3 26-630): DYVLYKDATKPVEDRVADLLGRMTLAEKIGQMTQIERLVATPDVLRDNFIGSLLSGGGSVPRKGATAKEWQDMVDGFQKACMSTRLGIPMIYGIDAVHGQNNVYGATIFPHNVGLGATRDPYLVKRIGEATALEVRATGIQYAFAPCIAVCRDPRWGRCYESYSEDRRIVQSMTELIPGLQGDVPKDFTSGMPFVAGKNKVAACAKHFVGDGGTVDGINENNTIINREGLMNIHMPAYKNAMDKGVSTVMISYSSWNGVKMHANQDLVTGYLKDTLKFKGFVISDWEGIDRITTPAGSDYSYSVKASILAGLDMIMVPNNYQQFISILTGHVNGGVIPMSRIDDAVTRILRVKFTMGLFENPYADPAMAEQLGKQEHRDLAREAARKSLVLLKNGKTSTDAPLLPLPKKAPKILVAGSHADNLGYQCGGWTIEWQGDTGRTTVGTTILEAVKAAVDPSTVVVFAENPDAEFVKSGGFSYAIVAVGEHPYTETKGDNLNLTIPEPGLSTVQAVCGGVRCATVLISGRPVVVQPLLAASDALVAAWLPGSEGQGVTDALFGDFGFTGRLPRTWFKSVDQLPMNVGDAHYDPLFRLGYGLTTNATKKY

[2] = biological target: T2, HvExoI (β-D-glucan glucohydrolase) (Hordeum vulgare, UniProt Q9XEI3, E245A); test: X-ray crystal structure
T2 sequence (Q9XEI3 26-630 E245A): T1 sequence (Q9XEI3 26-630) with E220A

[3] = biological target: T2, HvExoI (β-D-glucan glucohydrolase); test: competitive inhibition kinetics with 4NP-Glc

Compound | pKi [1] | pKi [2] | pKi [3]
O=[N+]([O-])c1ccc(O[C@H]2O[C@H](CO)[C@@H](O)[C@H](O)[C@H]2F)c([N+](=O)[O-])c1 [2F-DNPGlc, 2,4-dinitrophenyl 2-deoxy-2-fluro-α-D-glucopyranoside] | 6.30 | 6.30 | –
O=C1O[C@H](CO)[C@@H](O)[C@H](O)[C@H]1O [glucono-δ-lactone] | – | – | 3.99
